Columns and labels:
Matricaria inodora [1] = assay: Pre-emergence herbicidal action; type: in vivo; conditions: after about 3 weeks; for Matricaria inodora, herbicidal effect scored visually / pest or weed control at 1280 g/ha: 1280 g/ha
Text: (§1) Seeds of monocotyledonous and dicotyledonous weed plants and crop plants were placed in plastic or organic planting pots and covered with soil. The compounds of the invention, formulated in the form of wettable powders (WP) or as emulsion concentrates (EC), were then applied onto the surface of the covering soil as aqueous suspension or emulsion with addition of 0.5% additive at a water application rate of 600 l/ha (converted). After the treatment, the pots were placed in a greenhouse and kept under good growth conditions for the test plants. After about 3 weeks, the effect of the preparations was scored visually in comparison with untreated controls as percentages. For example, 100% activity=the plants have died, 0% activity=like control plants. Tables B1 to B15 below show the effects of selected compounds of the general formula (I) according to Tables I.1 to I.44 on various harmful plants and an application rate corresponding to 1280 g/ha or 320 g/ha, which were obtained by the experimental procedure mentioned above.

Poa annua = assay: Pre-emergence herbicidal action; type: in vivo; conditions: 1280 g/ha, after about 3 weeks
Text: as §1

Stellaria media [2] = assay: Pre-emergence herbicidal action; type: in vivo; conditions: after about 3 weeks
Text: as §1

photosystem II (PS II) = biological target: T1, photosystem II (PS II) (Spinacia oleracea, UniProt P69560); assay: Measurement of the PS II activity in thylakoid membranes (DCPIP reduction); type: biochemical; conditions: 100 μM test compound, spinach thylakoid membranes, DCPIP 120 μM, 10 min at 22° C. with exposure to light; for inhibition at 100 µM (stock): read-out: Effect (inhibition of PS II activity)
T1 construct: the chloroplasts were osmotically ruptured and the thylakoid membranes were then obtained by centrifugation; from tissue; host or cells: fresh spinach leaves; thylakoid membranes isolated from chloroplasts
Method: Cooled fresh spinach leaves were comminuted and homogenized in 50 mM phosphate buffer, pH 6.8. 10 mM KCl, 0.34 M sucrose (sucrose buffer) (blender, 1 g of plant material/ml). The homogenate was subsequently filtered through 4 layers of Miracloth and the chloroplasts were isolated by centrifugation, i.e. 10 min of centrifugation at 4400×g (4° C.). The sediment was suspended in 25 ml of sucrose buffer and re-centrifuged for 10 min at 4400×g (4° C.). The sediment was then suspended in 40 ml of 50 mM phosphate buffer, pH 6.8, 10 mM KCl, without sucrose. In this step, the chloroplasts were osmotically ruptured and the thylakoid membranes were then obtained by centrifugation (10 min, 4400×g, 4° C.). The membrane sediment was finally suspended in 20 ml of 50 mM phosphate buffer, pH 6.8, 10 mM KCl. Following protein determination and activity determination, the membrane suspension was divided into aliquots and frozen in liquid nitrogen. The aliquots were stored at −80° C. Under these conditions, the photosystem II preparation was storage stable for at least three months. The activity determination of photosystem II (PS II) was then carried out using the following test principle:
The electron transfer from PS II to an artificial electron acceptor, 2,6-dichlorophenolindophenol (DCPIP), was measured with exposure to light. The concentration of the blue oxidized form of DCPIP was determined spectrophotometrically at wavelength λ=595 nm. […] The activity determination was carried out in microtiter plates (96 cavities) in a reaction volume of 200 μl. Here, 155 μl of dilute membrane suspension were initially charged in 50 mM of phosphate buffer, pH 6.8, 10 mM KCl. Depending on the activity of the PS II preparation, the dilution was adjusted such that the measurement of the decrease in absorption (λ=595 nm) was linear for at least 10 min. In each case 5 μl solution of the test compounds of a concentration of 100 μM in DMSO were added to the enzyme suspension; controls contained 5 μl DMSO; the final concentration of DMSO in the reaction batch was thus 2.5% (v/v); this concentration had no adverse effect on the enzymatic activity. On each microtiter plate, a known PS II inhibitor, for example metribuzin, was used as standard, which allowed the quality of the PS II test to be assessed. The reaction was started by addition of 40 μl DCPIP solution (600 μM in distilled water); the final concentration of DCPIP was 120 μM. Measurement of absorption was carried out over a period of 10 min at 22° C. and with exposure to light. Using metribuzin as comparative substance, the results for the efficacy of the compounds of the general formula (I) at 100 μM are stated in the table below using the following classification: ++++ (inhibition≥90%), +++ ([…]≥70%), ++ (70%>inhibition≥50%), + (50%>inhibition≥30%).

Amaranthus retroflexus [3] = assay: Post-emergence herbicidal action; type: in vivo; conditions: about 3 weeks after treatment
Method: (§2) Seeds of monocotyledonous and dicotyledonous weeds and crop plants were placed in sandy loam in plastic or wood-fiber pots, covered with soil and cultivated in a greenhouse under controlled growth conditions. 2 to 3 weeks after sowing, the test plants were treated at the one-leaf stage. The compounds of the invention, formulated in the form of wettable powders (WP) or as emulsion concentrates (EC), were then sprayed onto the green parts of the plants as aqueous suspension or emulsion with addition of 0.5% additive at a water application rate of 600 l/ha (converted). After the test plants had been kept in the greenhouse under optimum growth conditions for about 3 weeks, the activity of the preparations was rated visually in comparison to untreated controls. For example, 100% activity=the plants have died, 0% activity=like control plants. Tables A1 to A12 below show the effects of selected compounds of the general formula (I) according to Tables I.1 to I.44 on various harmful plants and an application rate corresponding to 1280 g/ha or 320 g/ha, which were obtained by the experimental procedure mentioned above.

Stellaria media [4] = assay: Post-emergence herbicidal action; type: in vivo; conditions: about 3 weeks after treatment; for Stellaria media, herbicidal activity rated visually / pest or weed control at 1280 g/ha: 1280 g/ha
Method: as §2

Abutilon theophrasti = assay: Post-emergence herbicidal action; type: in vivo; conditions: about 3 weeks after treatment
Method: as §2

Amaranthus retroflexus [5] = assay: Pre-emergence herbicidal action; type: in vivo; conditions: 1280 g/ha, after about 3 weeks
Text: as §1

Setaria viridis [6] = assay: Pre-emergence herbicidal action; type: in vivo; conditions: 1280 g/ha, after about 3 weeks; for pest or weed control at 1280 g/ha: Setaria viridis, 504 h, read-out: Setaria viridis, herbicidal effect scored visually
Text: as §1

Lolium rigidum = assay: Pre-emergence herbicidal action; type: in vivo; conditions: 1280 g/ha, after about 3 weeks
Text: as §1

Viola tricolor [7] = assay: Pre-emergence herbicidal action; type: in vivo; conditions: after about 3 weeks
Text: as §1

Polygonum convolvulus [8] = assay: Post-emergence herbicidal action; type: in vivo; conditions: about 3 weeks after treatment
Method: as §2

Pharbitis purpurea = assay: Post-emergence herbicidal action; type: in vivo; conditions: about 3 weeks after treatment
Method: as §2

Viola tricolor [9] = assay: Post-emergence herbicidal action; type: in vivo; conditions: 504 h, about 3 weeks after treatment, read-out: Viola tricolor, herbicidal activity rated visually
Method: as §2

Setaria viridis [10] = assay: Post-emergence herbicidal action; type: in vivo; conditions: about 3 weeks after treatment
Method: as §2

Matricaria inodora [11] = assay: Post-emergence herbicidal action; type: in vivo; conditions: 1280 g/ha, about 3 weeks after treatment
Method: as §2

Polygonum convolvulus [12] = assay: Pre-emergence herbicidal action; type: in vivo; conditions: 1280 g/ha, after about 3 weeks
Text: as §1

Alopecurus myosuroides = assay: Pre-emergence herbicidal action; type: in vivo; conditions: 1280 g/ha, after about 3 weeks
Text: as §1

Veronica persica = assay: Post-emergence herbicidal action; type: in vivo; conditions: 1280 g/ha, about 3 weeks after treatment
Method: as §2

[13] = Tripleurospermum inodorum, 504 h, read-out: Matricaria inodora, herbicidal effect scored visually
[14] = Stellaria media, 504 h, 1280 g/ha, read-out: Stellaria media, herbicidal effect scored visually
[15] = Stellaria media, 504 h, read-out: Stellaria media, herbicidal activity rated visually

SMILES	Matricaria inodora, herbicidal effect scored visually (Matricaria inodora [1]) [%]	Poa annua, herbicidal effect scored visually (Poa annua) [%]	Stellaria media, herbicidal effect scored visually (Stellaria media [2]; 1280 g/ha) [%]	Effect (inhibition of PS II activity) (photosystem II (PS II))	Stellaria media, herbicidal activity rated visually (Stellaria media [4]) [%]	Abutilon theophrasti, herbicidal activity rated visually (Abutilon theophrasti; 320 g/ha) [%]	Amaranthus retroflexus, herbicidal effect scored visually (Amaranthus retroflexus [5]) [%]	inhibition at 100 µM (stock) (photosystem II (PS II)) [%]	pest or weed control at 1280 g/ha (Matricaria inodora [1]; [13]) [%]	pest or weed control at 1280 g/ha (Setaria viridis [6]) [%]	pest or weed control at 1280 g/ha (Stellaria media [2]; [14]) [%]	pest or weed control at 1280 g/ha (Stellaria media [4]; [15]) [%]	Polygonum convolvulus, herbicidal effect scored visually (Polygonum convolvulus [12]) [%]	other results
CSc1nsc(N2C(=O)C(C)=C(C)C2O)n1 (stereo not drawn) [I.2-303]	100	90	100	+++ (90%≥inhibition≥70%)	100	100								Amaranthus retroflexus, herbicidal activity rated visually (Amaranthus retroflexus [3]; 320 g/ha): 100%
CC1=C(C)C(O)N(c2nc(SCCOC(F)(F)F)ns2)C1=O (stereo not drawn) [I.2-338]	90	90		++++ (inhibition≥90%)	90	100	90							Setaria viridis, herbicidal effect scored visually (Setaria viridis [6]): 90%; Stellaria media, herbicidal effect scored visually (Stellaria media [2]; 320 g/ha): 90%; Lolium rigidum, herbicidal effect scored visually (Lolium rigidum): 90%
COc1nsc(N2C(=O)C(C)=C(C)C2O)n1 (stereo not drawn) [I.2-363, 3,4-Dimethyl-5-hydroxy-1-(3-methoxy-1,2,4-thiadiazol-5-yl)-1,5-dihydro-2H-pyrrol-2-one]								> 90						pest or weed control at 320 g/ha (Matricaria inodora [1]; Tripleurospermum inodorum, 504 h, 320 g/ha, read-out: Matricaria inodora, herbicidal effect scored visually): 90%; pest or weed control at 320 g/ha (Viola tricolor [7]; Viola tricolor, 504 h, 320 g/ha, read-out: Viola tricolor, herbicidal effect scored visually): 80%; pest or weed control at 320 g/ha (Stellaria media [2]; Stellaria media, 504 h, 320 g/ha, read-out: Stellaria media, herbicidal effect scored visually): 100%; Polygonum convolvulus, herbicidal activity rated visually (Polygonum convolvulus [8]; 320 g/ha): 100%; Pharbitis purpurea, herbicidal activity rated visually (Pharbitis purpurea; 320 g/ha): 80%; pest or weed control at 320 g/ha (Viola tricolor [9]; 320 g/ha): 100%; pest or weed control at 320 g/ha (Setaria viridis [10]; Setaria viridis, 504 h, 320 g/ha, read-out: Setaria viridis, herbicidal activity rated visually): 100%; pest or weed control at 320 g/ha (Stellaria media [4]; Stellaria media, 504 h, 320 g/ha, read-out: Stellaria media, herbicidal activity rated visually): 90%; pest or weed control at 320 g/ha (Abutilon theophrasti; Abutilon theophrasti, 504 h, 320 g/ha, read-out: Abutilon theophrasti, herbicidal activity rated visually): 90%
CC1=C(Cl)C(=O)N(c2nc(C(C)C)ns2)C1O (stereo not drawn) [I.3-5, 3-Chloro-4-methyl-5-hydroxy-1-(3-isopropyl-1,2,4-thiadiazol-5-yl)-1,5-dihydro-2H-pyrrol-2-one]		90							90	90	90	100		Matricaria inodora, herbicidal activity rated visually (Matricaria inodora [11]): 100%
CC1=C(Br)C(=O)N(c2nc(C)ns2)C1O (stereo not drawn) [I.5-2]	90		90										80	Viola tricolor, herbicidal effect scored visually (Viola tricolor [7]; 1280 g/ha): 90%; Alopecurus myosuroides, herbicidal effect scored visually (Alopecurus myosuroides): 80%; Setaria viridis, herbicidal activity rated visually (Setaria viridis [10]; 1280 g/ha): 80%; Abutilon theophrasti, herbicidal activity rated visually (Abutilon theophrasti; 1280 g/ha): 80%
CC(C)c1nsc(N2C(=O)N(C)CC2O)n1 (stereo not drawn) [I.13-5, 4-Hydroxy-1-methyl-3-[3-(isopropyl)-1,2,4-thiadiazol-5-yl]imidazolidin-2-one]							100	70 to 90	90	80	90	100	90	pest or weed control at 1280 g/ha (Viola tricolor [7]; Viola tricolor, 504 h, 1280 g/ha, read-out: Viola tricolor, herbicidal effect scored visually): 90%; Amaranthus retroflexus, herbicidal activity rated visually (Amaranthus retroflexus [3]; 1280 g/ha): 100%; Polygonum convolvulus, herbicidal activity rated visually (Polygonum convolvulus [8]; 1280 g/ha): 90%; Pharbitis purpurea, herbicidal activity rated visually (Pharbitis purpurea; 1280 g/ha): 90%; pest or weed control at 1280 g/ha (Viola tricolor [9]; 1280 g/ha): 100%; Veronica persica, herbicidal activity rated visually (Veronica persica): 100%; pest or weed control at 1280 g/ha (Setaria viridis [10]; Setaria viridis, 504 h, 1280 g/ha, read-out: Setaria viridis, herbicidal activity rated visually): 100%; pest or weed control at 1280 g/ha (Abutilon theophrasti; Abutilon theophrasti, 504 h, 1280 g/ha, read-out: Abutilon theophrasti, herbicidal activity rated visually): 100%
